Assay results taken from publication PMC12381739, “Druglike Molecular Degraders of the Oncogenic RNA-Binding Protein HuR” (JACS Au, 2025).

Experiments:
Bcl2 [1] = assay: Bcl2 protein expression by western blot in MCF-7 cells; type: cell-based, human; details: MCF-7, 10 nM, 24 h
Description: (§1) The hook effect was again observed in Bcl2 protein expression, underscoring the functional link between HuR and Bcl2.
(§2) MDA-MB-231 and MCF-7 cells were seeded in 6-well plates at approximately 60% confluency in complete growth medium and treated with synthesized compounds at the indicated concentrations or with vehicle for 24 h. Total protein was extracted using RIPA cell lysis buffer (BioPrep) containing a protease inhibitor, and protein concentration was measured using the BCA protein assay (Sigma-Aldrich) according to the manufacturer’s protocol. Approximately 30 μg of total protein were resolved on a 12% SDS-acrylamide gel and transferred to a PVDF membrane (Immobilon FL transfer membrane; Merck). The membrane was washed with 1× Tris-buffered saline (TBS) containing 0.1% (v/v) Tween-20 (TBST; Tris-base, pH 7.6, NaCl, and Tween-20) and blocked in 1× TBST containing 5% (w/v) BSA for 2 h at room temperature. […] The fold change in the expression of the target proteins (HuR or Bcl2) was calculated by normalizing the band intensity to the Vinculin band intensity using ImageJ.

Bcl2 [2] = assay: Bcl2 protein expression by western blot in MDA-MB-231 cells; type: cell-based, human; details: MDA-MB-231, 10 nM, 24 h
Description: as §1, §2

MCF-10A = assay: Crystal violet viability assay in MCF-10A cells; type: cell-based; details: 10 nM or 10 μM, 48 h
Excerpt: (§3) To elucidate the decrease in cell viability observed, we evaluated the potential increase in apoptosis using the […] Caspase-Glo 3/7 assay system. Upon cell lysis, active caspases cleave a luminogenic substrate, releasing aminoluciferin, which is subsequently converted to light by luciferase. The intensity of the signal directly correlates with the levels of apoptosis. […] This destabilization reduces the levels of proteins essential for cancer cell survival, resulting in cumulative cellular stress, diminished proliferation, and enhanced cytotoxicity. […] This enhanced effect is likely due to the catalytic nature of the molecular glue degraders, offering promising potential for cancer treatment.
RNF-126 recruiter for 48 h, measured using crystal violet. (B) Viability assay of MCF-10A cells
126 recruiter for 48 h, measured using crystal violet.
(1 picture or pasted object on this page, not shown here)

Bcl2 and FOXQ1 mRNA = assay: mRNA RT-qPCR of Bcl2 and FOXQ1 in MCF-7 cells; type: cell-based, human; details: MCF-7, concentrations ranging from 1 nM to 100 nM
Description: MCF-7 cells were seeded into 12-well plates (∼150,000 cells per well) at 60–70% confluency incubated for 12 h. The cells were then treated with different synthesized compounds at the indicated concentrations or with vehicle control for 24 and 48 h. After treatment, total RNA was extracted using the QuickRNA Miniprep Kit (Zymo Research) according to the manufacturer’s protocol, including DNase I treatment. Reverse transcription was performed on 1 μg of total RNA using the qScript cDNA Synthesis Kit (Quantabio) following the manufacturer’s instructions. Approximately 30 ng of cDNA were used for each qPCR reaction, which was carried out using the Luna Universal qPCR Master Mix (New England BioLabs, cat# E3010G) on a CFX Opus 384 Real-Time PCR System. Relative expression levels of Bcl-2 and FOXQ1 were calculated by normalizing to GAPDH expression using the ΔΔCt method.

MCF-7 spheroids = assay: 3D spheroid growth model, MCF-7; type: cell-based, human; details: 10 nM
Description: (§4) MDA-MB-231 and MCF-7 breast cancer cells were cultured in standard tissue culture plates using RPMI or DMEM media supplemented with 10% fetal bovine serum (FBS) and 1% penicillin–streptomycin until they reached approximately 80% confluency. Cells were washed with PBS and dissociated using 0.25% Trypsin-EDTA, followed by neutralization with complete medium. Viability was assessed via trypan blue exclusion, ensuring >90% viable cells. For spheroid formation, cells were seeded into ultralow attachment 96-well plates at a density of 5000 cells/well in 200 μL of complete medium. Plates were centrifuged at 1000 rpm for 5 min to promote aggregation and incubated at 37 °C in a humidified 5% CO2 atmosphere. Spheroid formation was monitored daily using an inverted microscope. Media exchanges or treatment additions were performed by carefully aspirating 100 μL of medium from each well and replacing it with an equal volume of fresh or treatment-containing medium. Differences in spheroid characteristics between the two cell lines were noted: MCF-7 cells, being epithelial and E-cadherin positive, formed compact, uniform spheroids at lower seeding densities (1000–5000 cells/well) over 3–5 days, whereas MDA-MB-231 cells, which lack E-cadherin, required higher densities (5000–10,000 cells/well) and formed looser aggregates typically within 2–4 days. All experiments were performed in duplicates. Surface area was calculated using Image View’s multipoint connection function.

MCF-7 cells [3] = assay: Crystal violet viability assay in MCF-7 cells; type: cell-based, human; details: MCF-7, 10 nM and 10 μM, 48 h
Excerpt: as §3
[…] After treatment, the medium was removed, and cells were gently washed with PBS to remove any residual media. Cells were then fixed by adding 100 μL of 100% cold methanol and incubating for 10 min. The methanol was aspirated, and the cells were allowed to air-dry fully. The cells were stained with 50 μL of 0.1% crystal violet for 10 min, after which excess crystal violet was aspirated and the cells were washed with PBS. To quantify cell viability, 100 μL of 33% acetic acid was added to each well to solubilize the bound dye. […] was then measured at 590 nm using Synergy H1 Hybrid Multi-Mode Microplate Reader (Biotek, Agilent). […]

MDA-MB-231 spheroids = assay: 3D spheroid growth model, MDA-MB-231; type: cell-based, human; details: 10 nM
Description: as §4

MCF-7 cells [4] = assay: Caspase-Glo 3/7 apoptosis assay; type: cell-based, human; details: MCF-7, 10 nM
Excerpt: as §3
MCF-7 cells were seeded in 96-well plates to 80% confluency and treated with synthesized compounds at four concentrations (1 nM–1 μM) for 24 and 48 h. Cell apoptosis was analyzed using the Caspase-Glo 3/7 Assay System (Promega, G8090). Each sample was incubated with Caspase-Glo 3/7 solution for 1 h, followed by luminescence measurement. Luminescence was measured […] using the Synergy H1 Hybrid Multi-Mode Microplate Reader (Biotek, Agilent). Cell apoptosis was calculated as the percent increase in luminescence of treated cells compared to untreated controls. All experiments were performed in triplicate.

## CCOC(=O)c1cc2cc(NC(=O)/C=C/C(=O)c3ccc(OC)cc3)ccc2[nH]1 [MG-HuR2]
Bcl2 [1]
  reduction of Bcl2 protein expression: 88%
Bcl2 [2]
  reduction of Bcl2 protein expression: 45%
MCF-10A
  cytotoxicity / viability in nontumorigenic cells: No significant cytotoxicity or change in viability
Bcl2 and FOXQ1 mRNA
  Bcl2 and FOXQ1 mRNA expression: decrease in the expression of both genes
MCF-7 spheroids
  spheroid growth: inhibited spheroid growth after 2 days
MCF-7 cells [3]
  cytotoxicity / cell viability (crystal violet): exhibited cytotoxic activity
MDA-MB-231 spheroids
  spheroid growth: inhibited spheroid growth after 2 days
MCF-7 cells [4]
  apoptosis (caspase 3/7): significant increase in apoptosis
